Test results published in article PMC9544171, “Glucose‐dependent insulinotropic polypeptide receptor antagonist treatment causes a reduction in weight gain in ovariectomised high fat diet‐fed mice” (British Journal of Pharmacology, 2022).
Where a SMILES comes first, the peptide text is derived from it. The star is where a group is joined. C16 diacid = O=C(O)CCCCCCCCCCCCCCC(=O)*

Molecular target: T1, human GIP receptor (Homo sapiens, UniProt P48546)
T1 construct: host or cells: COS-7
T1 sequence (P48546 22-466): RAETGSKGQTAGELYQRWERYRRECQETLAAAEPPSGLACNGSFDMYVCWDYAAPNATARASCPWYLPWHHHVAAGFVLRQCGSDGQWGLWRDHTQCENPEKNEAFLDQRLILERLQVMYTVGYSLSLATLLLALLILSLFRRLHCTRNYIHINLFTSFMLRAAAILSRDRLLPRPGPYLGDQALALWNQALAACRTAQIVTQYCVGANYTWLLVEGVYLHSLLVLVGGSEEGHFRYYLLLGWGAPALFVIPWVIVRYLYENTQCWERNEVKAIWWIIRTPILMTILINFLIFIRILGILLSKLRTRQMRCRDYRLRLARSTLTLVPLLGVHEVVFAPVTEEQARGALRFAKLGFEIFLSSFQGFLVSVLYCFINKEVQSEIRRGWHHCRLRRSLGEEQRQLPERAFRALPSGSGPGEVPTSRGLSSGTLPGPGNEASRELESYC
Experiment: cAMP accumulation, antagonism of human GIP(1‐42) in transfected COS‐7 cells
Format: cell-based
Settings: COS‐7 transiently transfected with human GIPR; 10 min preincubation with antagonist, then human GIP(1‐42) at 50%–80% of Emax for 20 min; HitHunter cAMP; Hill slope −1.0; n = 5 independent experiments; read-out: IC50, inhibition of hGIP‐induced cAMP accumulation, human GIPR
Procedure: COS‐7 cells were cultured at 10% CO2 and 37°C in Dulbecco's Modified Eagle Medium 1885 supplemented with 10% foetal bovine serum, 2‐mM glutamine, 180‐units ml^−1 penicillin and […] streptomycin. Transient transfection of the cells with either human or mouse GIP receptor was performed using the calcium phosphate precipitation method as previously described (van der Velden et al., [2021]). A second set of cells was transiently transfected with either mouse GLP‐1 or GLP‐2 receptor. Following the day after transfection, the cells were seeded in white 96‐well plates with a density of 35.000 cells per well. The next day the assay was initiated by washing the cells with HEPES buffered saline (HBS) followed by an incubation step with HBS and 1‐mM 3‐isobutyl‐1‐methylxanthine for 30 min at 37°C. For agonist studies, the ligands were then added and incubated for an additional 30 min at 37°C. […] Luminescence was measured by PerkinElmer™ Envision 2014 Multilabel Reader. […]
Results are presented as mean ± SE. Data were analysed with one‐way and two‐way analysis of variance (ANOVA) with Tukey's or Sidak multiple comparisons test and Student's unpaired t tests where appropriate. […] For the in vitro data IC50 values were determined by nonlinear regression using GraphPad Prism 9 (San Diego, California, USA). […]

`CC[C@H](C)[C@H](NC(=O)[C@H](CO)NC(=O)[C@H](Cc1ccc(O)cc1)NC(=O)[C@H](CC(=O)O)NC(=O)[C@H](CO)NC(=O)[C@@H](NC(=O)[C@H](Cc1ccccc1)NC(=O)[C@@H](NC(=O)CNC(=O)[C@@H](N)CCC(=O)O)[C@@H](C)O)[C@@H](C)CC)C(=O)N[C@@H](C)C(=O)N[C@@H](CCSC)C(=O)N[C@@H](CC(=O)O)C(=O)N[C@@H](CCCCN)C(=O)N[C@H](C(=O)N[C@@H](CCCCNC(=O)CCCCCCCCCCCCCCC(=O)O)C(=O)N[C@@H](CCC(N)=O)C(=O)N[C@@H](CCC(N)=O)C(=O)N[C@@H](CC(=O)O)C(=O)N[C@@H](Cc1ccccc1)C(=O)N[C@H](C(=O)N[C@@H](CC(N)=O)C(=O)N[C@@H](Cc1c[nH]c2ccccc12)C(=O)N[C@@H](CC(C)C)C(=O)N[C@@H](CC(C)C)C(=O)N[C@@H](C)C(=O)N[C@@H](CCC(N)=O)C(=O)N[C@@H](CCCCN)C(=O)NCC(=O)N[C@@H](CCCCN)C(=O)N[C@@H](CCCCN)C(=O)N[C@@H](CC(N)=O)C(=O)N[C@@H](CC(=O)O)C(=O)N[C@@H](Cc1c[nH]c2ccccc12)C(=O)N[C@@H](CCCCN)C(=O)N[C@@H](Cc1c[nH]cn1)C(=O)N[C@@H](CC(N)=O)C(=O)O)C(C)C)[C@@H](C)CC` [mGIPAnt‐1] (H-EGTFISDYSIAMDKIK(C16 diacid)QQDFVNWLLAQKGKKNDWKHN-OH) showed an IC50 of 11 nM.
